Measured values published in paper PMC10847213 (Clinical Pharmacokinetics, 2023).
Entries after “also recorded” stand apart in the source; their conditions may differ. Read-outs that look alike come from different tables or passages of the source.

Legend:
UGT = assay: Effect of multiple-dose lorlatinib on the pharmacokinetics of acetaminophen; type: in vivo, human
CYP2B6 [1] = assay: Effect of multiple-dose lorlatinib on the pharmacokinetics of bupropion; type: in vivo, human
CYP3A4/5 [2] = details: lorlatinib with modafinil; cited from earlier work
CYP3A4/5 [3] = details: cited from earlier work
bone marrow of rats = details: cited from earlier work
CYP2C8 = details: in vitro; cited from earlier work
CYP3A4/5 [4] = details: cited from earlier work; remark: listed apart in the source
CYP3A4/5 [5] = details: cited from earlier work; remark: listed apart in the source
CYP2C19 = details: in vitro; cited from earlier work
CYP2C9 [6] = assay: Effect of multiple-dose lorlatinib on the pharmacokinetics of tolbutamide; type: in vivo, human; details: lorlatinib 100 mg QD at steady state; probe tolbutamide
bacterial assay = details: in vitro bacterial assay; cited from earlier work
CYP1A2 = details: in vitro; cited from earlier work
CYP3A4/5 [7] = details: lorlatinib with itraconazole; cited from earlier work
P-glycoprotein (P-gp) [8] = target: P-glycoprotein (P-gp) (Homo sapiens, UniProt P08183); assay: Effect of multiple-dose lorlatinib on the pharmacokinetics of fexofenadine; type: in vivo; details: lorlatinib 100 mg QD at steady state; probe fexofenadine
Chain of P-glycoprotein (P-gp) (Homo sapiens, UniProt P08183) (P08183 whole entry): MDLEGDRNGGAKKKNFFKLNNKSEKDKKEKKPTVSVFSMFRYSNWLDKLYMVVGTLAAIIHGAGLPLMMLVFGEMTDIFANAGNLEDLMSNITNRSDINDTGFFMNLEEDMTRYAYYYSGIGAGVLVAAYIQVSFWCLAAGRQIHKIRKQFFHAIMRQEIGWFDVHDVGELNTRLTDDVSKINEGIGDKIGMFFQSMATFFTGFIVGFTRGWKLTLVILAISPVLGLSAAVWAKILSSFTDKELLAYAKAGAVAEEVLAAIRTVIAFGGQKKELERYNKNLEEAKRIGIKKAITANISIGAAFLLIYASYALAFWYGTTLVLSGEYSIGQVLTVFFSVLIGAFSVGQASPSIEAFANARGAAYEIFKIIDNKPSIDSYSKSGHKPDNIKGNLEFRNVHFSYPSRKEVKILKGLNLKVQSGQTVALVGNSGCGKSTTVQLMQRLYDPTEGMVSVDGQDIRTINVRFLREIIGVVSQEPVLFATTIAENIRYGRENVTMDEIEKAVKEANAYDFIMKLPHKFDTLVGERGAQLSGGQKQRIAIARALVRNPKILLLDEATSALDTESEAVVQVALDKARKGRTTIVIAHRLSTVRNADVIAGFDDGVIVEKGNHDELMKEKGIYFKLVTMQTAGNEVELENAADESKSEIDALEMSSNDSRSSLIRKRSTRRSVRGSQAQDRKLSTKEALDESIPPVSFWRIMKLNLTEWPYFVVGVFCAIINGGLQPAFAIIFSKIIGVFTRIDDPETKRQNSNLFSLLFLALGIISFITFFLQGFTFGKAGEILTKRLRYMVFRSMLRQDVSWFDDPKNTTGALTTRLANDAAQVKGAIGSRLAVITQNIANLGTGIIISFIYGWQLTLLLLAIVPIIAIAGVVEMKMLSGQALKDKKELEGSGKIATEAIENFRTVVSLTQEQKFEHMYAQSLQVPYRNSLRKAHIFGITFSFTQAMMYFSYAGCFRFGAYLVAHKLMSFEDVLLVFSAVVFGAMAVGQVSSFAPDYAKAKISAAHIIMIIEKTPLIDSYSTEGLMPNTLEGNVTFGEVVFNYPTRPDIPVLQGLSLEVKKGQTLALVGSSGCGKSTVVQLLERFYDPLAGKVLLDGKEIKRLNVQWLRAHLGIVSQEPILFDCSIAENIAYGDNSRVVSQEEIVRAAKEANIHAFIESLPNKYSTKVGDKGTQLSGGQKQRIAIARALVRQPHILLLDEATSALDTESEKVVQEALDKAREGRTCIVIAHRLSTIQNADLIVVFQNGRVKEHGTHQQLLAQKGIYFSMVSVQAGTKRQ

CYP2B6 [9] = details: in vitro; cited from earlier work
[10] = test system: human pregnane X receptor (PXR); details: cited from earlier work
P-glycoprotein (P-gp) [11] = details: MDCK II-MDR1 cells, substrate digoxin; cited from earlier work
CYP2D6 = details: in vitro; cited from earlier work
[12] = test system: human lymphoblastoid TK6 cells; details: cited from earlier work
CYP2C9 [13] = details: in vitro; cited from earlier work
plasma proteins = details: cited from earlier work
[14] = after oral administration; cited from earlier work
[15] = acetaminophen with lorlatinib 100 mg QD vs acetaminophen alone
[16] = single oral 2-mg dose of midazolam with lorlatinib 150 mg QD

CC(=O)Nc1ccc(O)cc1 [Acetaminophen, acetaminophen]
Decrease in AUC∞ (UGT; [15]): 45%
Decrease in Cmax (UGT; [15]): 28%

CC(NC(C)(C)C)C(=O)c1cccc(Cl)c1 (stereo not shown) [Bupropion, bupropion]
Decrease in Cmax (CYP2B6 [1]; bupropion with lorlatinib 100 mg QD vs bupropion alone): 27%

C[C@H]1Oc2cc(cnc2N)-c2c(nn(C)c2C#N)CN(C)C(=O)c2ccc(F)cc21 [Lorlatinib, (10R)-7-amino-12-fluoro-2,10,16-trimethyl-15-oxo-10,15,16,17-tetrahydro-2H-8,4-(metheno)pyrazolo[4,3-h][2,5,11]-benzoxadiazacyclotetradecine-3-carbonitrile]
Reduction in AUC∞ (CYP3A4/5 [2]): 23%
Reduction in Cmax (CYP3A4/5 [2]): 22%
Effect on CYP3A4/5 (CYP3A4/5 [3]): time-dependent inhibitor and inducer
Aneugenicity in vivo (bone marrow of rats): aneugenic
Inhibition of CYP2C8 (CYP2C8): do not inhibit
Transaminase / liver enzyme levels (CYP3A4/5 [4]; coadministration of lorlatinib with rifampin): elevated liver enzyme levels; also recorded: rapid elevations in transaminase values
Reduction in Cmax (CYP3A4/5 [4]; lorlatinib with rifampin): 76%
Reduction in mean AUC∞ (CYP3A4/5 [4]; lorlatinib with rifampin): 85%
Inducer classification, CYP3A4/5 (CYP3A4/5 [5]; after multiple dosing, probe midazolam): moderate (≥ 50% to < 80%)
Inhibition of CYP2C19 (CYP2C19): do not inhibit
Inducer classification, CYP2C9 (CYP2C9 [6]): weak (≥ 20% to < 50%)
Mutagenicity (bacterial assay): not mutagenic
Inducer classification, CYP2B6 (CYP2B6 [1]; lorlatinib 100 mg QD at steady state, probe bupropion): weak (≥ 20% to < 50%)
Inhibition of CYP1A2 (CYP1A2): do not inhibit
Increase in AUC∞ (CYP3A4/5 [7]): 42%
Increase in Cmax (CYP3A4/5 [7]): 24%
Inducer classification, P-gp (P-glycoprotein (P-gp) [8]): moderate (≥ 50% to < 80%)
Inhibition of CYP2B6 (CYP2B6 [9]): do not inhibit
PXR activation [10]: activate PXR
Inhibition of P-gp efflux (P-glycoprotein (P-gp) [11]): inhibit
Inhibition of CYP2D6 (CYP2D6): do not inhibit
Aneugenicity in vitro [12]: aneugenic
Inhibition of CYP2C9 (CYP2C9 [13]): do not inhibit
Inducer classification, UGT (UGT; lorlatinib 100 mg QD at steady state, probe acetaminophen): weak (≥ 20% to < 50%)
Binding to plasma proteins (plasma proteins): 66%
Bioavailability [14]: 81%

Cc1ncc2n1-c1ccc(Cl)cc1C(c1ccccc1F)=NC2 [midazolam]
Decrease in AUC∞ (CYP3A4/5 [5]; [16]): 64%
Decrease in Cmax (CYP3A4/5 [5]; [16]): 50%
